≈ marks a conversion by molar mass, not a printed value.

The values that follow come from ChEMBL document CHEMBL2169756, “Recent results in protein kinase inhibition for tropical diseases” (Bioorg Med Chem Lett, 2012).

The target of data set [1] is T1, Cdc2-related kinase (Leishmania major, UniProt O96526).
T1 sequence (O96526 whole entry): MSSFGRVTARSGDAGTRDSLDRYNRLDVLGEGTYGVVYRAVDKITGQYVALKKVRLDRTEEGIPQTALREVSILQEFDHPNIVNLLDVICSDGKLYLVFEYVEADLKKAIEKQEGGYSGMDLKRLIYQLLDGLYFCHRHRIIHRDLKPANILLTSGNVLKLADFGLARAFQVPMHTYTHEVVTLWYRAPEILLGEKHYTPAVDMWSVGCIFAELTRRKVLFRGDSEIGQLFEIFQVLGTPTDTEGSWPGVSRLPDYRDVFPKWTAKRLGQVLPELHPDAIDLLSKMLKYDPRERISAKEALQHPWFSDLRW
Kind of data set: Inhibition of Leishmania major CRK3 expressed in Escherichia coli BL21 (DE3) after 30 mins by autoradiography.

In another data set the test system is Leishmania major. In words: Antileishmanial activity against Leishmania major promastigotes. In kind it is functional, organism-based.
The target in data set [2] is T1, Cdc2-related kinase. In words: Inhibition of Leishmania major CRK3 expressed in Escherichia coli BL21 (DE3) using 5FAM-GGGRSPGRRRRK-OH as substrate after 60 mins by IMAP assay.
The next data set has as its system Toxoplasma gondii. In words: Antiprotozoal activity against Toxoplasma gondii expressing low level of ROP18 infected in human HFF cells. The format is functional, organism-based.
The nature of data set [3]: Inhibition of Plasmodium falciparum MPK.
The nature of data set [4]: Selectivity ratio of cytotoxicity for […] to IC50 for Mycobacterium tuberculosis H37Rv. In kind it is cell-based.
Data set [5] concerns Mycobacterium tuberculosis. Kind of data set: Antitubercular activity against Mycobacterium tuberculosis H37Rv by high throughput assay. The format is functional.
Data set [6] deals with cGMP-dependent protein kinase (Plasmodium falciparum, UniProt W7JX98). Kind of data set: Inhibition of PKG in Plasmodium falciparum 3D7 microgametes.
Sequence of cGMP-dependent protein kinase (W7JX98 whole entry): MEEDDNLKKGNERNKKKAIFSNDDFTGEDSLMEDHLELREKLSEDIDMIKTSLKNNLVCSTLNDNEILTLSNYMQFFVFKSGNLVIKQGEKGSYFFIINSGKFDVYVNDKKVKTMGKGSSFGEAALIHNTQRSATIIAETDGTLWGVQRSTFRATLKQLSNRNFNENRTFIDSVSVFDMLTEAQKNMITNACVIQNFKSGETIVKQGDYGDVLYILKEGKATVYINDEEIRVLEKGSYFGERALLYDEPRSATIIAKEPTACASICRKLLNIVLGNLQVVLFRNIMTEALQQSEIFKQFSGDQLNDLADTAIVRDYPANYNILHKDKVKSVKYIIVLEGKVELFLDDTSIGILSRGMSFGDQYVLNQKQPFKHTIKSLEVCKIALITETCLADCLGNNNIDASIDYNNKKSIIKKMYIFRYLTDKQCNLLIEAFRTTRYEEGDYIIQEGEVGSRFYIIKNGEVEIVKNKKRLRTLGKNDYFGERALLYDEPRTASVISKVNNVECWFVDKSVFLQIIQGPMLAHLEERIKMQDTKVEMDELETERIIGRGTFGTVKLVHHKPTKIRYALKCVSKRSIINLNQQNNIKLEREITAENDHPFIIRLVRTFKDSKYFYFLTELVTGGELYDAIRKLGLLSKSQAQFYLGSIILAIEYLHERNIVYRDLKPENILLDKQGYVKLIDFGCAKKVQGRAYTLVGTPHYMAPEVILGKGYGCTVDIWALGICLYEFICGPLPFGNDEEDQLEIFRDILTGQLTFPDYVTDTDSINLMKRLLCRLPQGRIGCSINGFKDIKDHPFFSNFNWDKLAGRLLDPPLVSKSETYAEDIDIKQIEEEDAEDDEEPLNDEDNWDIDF
Data set [7] has as its target Cyclin-dependent kinase 7 (Homo sapiens, UniProt P50613). Kind of data set: Inhibition of human CDK7.
In data set [8] the target is Cyclin-dependent kinase 6 (Homo sapiens, UniProt Q00534). In words: Inhibition of human CDK6.
Sequence of Cyclin-dependent kinase 6 (Q00534 whole entry): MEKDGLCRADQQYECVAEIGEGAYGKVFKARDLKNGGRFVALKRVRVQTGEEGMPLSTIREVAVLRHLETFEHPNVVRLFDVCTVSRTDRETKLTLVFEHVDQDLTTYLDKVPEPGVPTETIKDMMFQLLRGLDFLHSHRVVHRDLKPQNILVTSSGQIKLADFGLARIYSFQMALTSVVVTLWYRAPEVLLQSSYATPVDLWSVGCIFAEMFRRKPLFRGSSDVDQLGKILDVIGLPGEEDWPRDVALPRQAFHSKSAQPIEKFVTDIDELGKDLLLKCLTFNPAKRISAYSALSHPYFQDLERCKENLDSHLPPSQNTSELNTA
Data set [9] addresses Cyclin-dependent kinase 1 (Homo sapiens, UniProt P06493). In words: Inhibition of human CDK1.
Data set [10] addresses Cyclin-dependent kinase 2 (Homo sapiens, UniProt P24941). In words: Inhibition of human CDK2.
In a further data set the test system is Plasmodium falciparum. Kind of data set: Antimalarial activity against Plasmodium falciparum. In kind it is functional, organism-based.
The target of data set [11] is T2, Calcium-dependent protein kinase 4 (Plasmodium falciparum (isolate 3D7), UniProt Q8IBS5).
T2 sequence (Q8IBS5 whole entry): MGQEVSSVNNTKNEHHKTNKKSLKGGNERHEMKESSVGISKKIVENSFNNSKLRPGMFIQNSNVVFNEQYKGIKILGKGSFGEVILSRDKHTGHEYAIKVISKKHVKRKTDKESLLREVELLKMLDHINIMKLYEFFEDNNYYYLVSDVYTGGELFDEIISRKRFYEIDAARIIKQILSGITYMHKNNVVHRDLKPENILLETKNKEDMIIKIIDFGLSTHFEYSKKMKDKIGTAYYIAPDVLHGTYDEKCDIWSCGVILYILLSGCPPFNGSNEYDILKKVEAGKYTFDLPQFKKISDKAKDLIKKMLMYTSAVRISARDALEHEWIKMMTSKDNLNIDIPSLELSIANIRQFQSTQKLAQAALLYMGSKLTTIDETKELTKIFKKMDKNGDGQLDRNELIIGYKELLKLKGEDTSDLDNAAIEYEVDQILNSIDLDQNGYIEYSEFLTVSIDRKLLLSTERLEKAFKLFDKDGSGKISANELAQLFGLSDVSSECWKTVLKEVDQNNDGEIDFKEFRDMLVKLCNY
In words: Inhibition of CDPK4 in Plasmodium falciparum 3D7 microgametes.

The test system of a further data set is Trypanosoma brucei. Kind of data set: Antitrypanosomal activity against Trypanosoma brucei infected in Swiss Webster mouse assessed as cure rate at 20 mg/kg, ip bid administered 4 days post infection. The format is functional. As to conditions: route intraperitoneal.
For data set [12], the system named is Trypanosoma brucei brucei. Kind of data set: Antitrypanosomal activity against procyclic Trypanosoma brucei brucei 29-13 after 72 hrs by resazurin microplate assay. As to conditions: 29-13, 72 h. The format is functional, organism-based. A general note: Resazurin is reduced to fluorescent resorufin, in cell work by metabolically active cells.
Data set [13] has as its system Leishmania donovani. Kind of data set: Antileishmanial activity against Leishmania donovani MHOM/SD/62/1SCL2D promastigotes after 72 hrs by resazurin reduction assay. The format is functional, organism-based.
In data set [14] the test system is Leishmania donovani. In words: Antileishmanial activity against Leishmania donovani MHOM/SD/62/1SCL2D amastigotes after 72 hrs by resazurin reduction assay. In kind it is functional, organism-based.
Data set [15] concerns Trypanosoma brucei brucei. In words: Antitrypanosomal activity against bloodstream form of Trypanosoma brucei brucei 427 after 72 hrs by resazurin microplate assay. The format is functional, organism-based. As to conditions: Trypanosoma brucei, 427, 72 h.

Sequence of Cyclin-dependent kinase 1 (P06493 whole entry): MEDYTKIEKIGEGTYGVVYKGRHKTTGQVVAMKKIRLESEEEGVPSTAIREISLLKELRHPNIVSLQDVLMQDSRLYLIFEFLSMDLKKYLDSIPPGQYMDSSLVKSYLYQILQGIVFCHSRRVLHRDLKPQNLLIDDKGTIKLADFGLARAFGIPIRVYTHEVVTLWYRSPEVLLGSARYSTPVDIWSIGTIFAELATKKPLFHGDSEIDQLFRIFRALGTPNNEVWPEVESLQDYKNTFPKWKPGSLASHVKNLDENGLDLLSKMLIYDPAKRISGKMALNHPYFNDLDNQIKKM
Sequence of Cyclin-dependent kinase 7 (P50613 whole entry): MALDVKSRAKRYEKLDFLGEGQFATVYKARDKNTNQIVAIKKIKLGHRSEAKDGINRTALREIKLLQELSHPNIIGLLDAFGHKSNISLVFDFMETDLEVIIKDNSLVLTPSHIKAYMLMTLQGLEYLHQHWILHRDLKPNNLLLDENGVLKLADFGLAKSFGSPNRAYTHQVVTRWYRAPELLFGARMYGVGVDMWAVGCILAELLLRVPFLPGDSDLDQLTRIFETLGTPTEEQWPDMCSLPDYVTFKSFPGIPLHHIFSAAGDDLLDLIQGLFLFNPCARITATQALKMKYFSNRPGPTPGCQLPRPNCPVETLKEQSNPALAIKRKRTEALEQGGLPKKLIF

In the case of `COc1ccc(-n2nnc3c(N4CCCC(O)C4)nc(CC4CCCCC4)nc32)cc1` (centres undefined), the results for the IC50 against Cdc2-related kinase [1] and with Leishmania major were 5300 nM and 8600 nM, respectively.
Consider `CC(=O)c1cccc(-c2cnn3ccc(Nc4ccc(N5CCOCC5)cc4)nc23)c1`, for which the IC50 – broadly, the concentration that gives 50% inhibition – at Cdc2-related kinase [2] was 260 nM.
`Cc1cccc(-c2ccc3nc(NC(=O)C4CCCCC4)nn3c2)c1` displayed an IC50 at Cdc2-related kinase [2] of 60 nM.
In the case of `Cc1cc(C)cc(-c2ccc3nc(NC(=O)C4CCCCC4)nn3c2)c1`, the IC50 at Cdc2-related kinase [2] was 20 nM.
`Cn1c(=O)c(/C=C/c2ccc3c(c2)OCO3)nc2ccccc21` yielded an IC50 with Toxoplasma gondii of 2 nM.
In data set [3], `O=S(=O)(Nc1ccccc1)c1cc(Cl)sc1Cl` had a concentration for half-maximal inhibition (IC50) of 15000 nM.
Consider `O=C(Nc1nnc(-c2ccco2)o1)c1ccc(Oc2ccccc2)cc1`, for which the selectivity ratio in [4] was above 75. Moreover, in data set [5], the IC90 (in general, the concentration at which the effect reaches the 90% level) was below 0.2 µg/mL.
For `CC(C)(C)c1ccc(C(=O)Nc2nnc(-c3cccnc3)o2)cc1`, the selectivity ratio in data set [4] is above 48. Further, in data set [5], the 90% effect level (IC90) was put at 0.84 µg/mL (≈ 2.61 µM).
`COc1cc(-c2ccc3nc(NC(=O)C4CCCCC4)nn3c2)ccc1O`: it took 240 nM to reach half-maximal inhibition against Cdc2-related kinase [2] (IC50).
With `Cc1ccc(NC(=O)Nc2ccnc(-c3cccnc3)n2)cc1`, half-maximal inhibition at Cdc2-related kinase [2] (IC50) required 1500 nM.
Consider `CN1CCC(c2cc(-c3ccncc3)c(-c3ccc(F)cc3)[nH]2)CC1`, for which 8 nM corresponded to half-maximal inhibition in data set [6] (IC50).
In the case of `Cc1ccc(N(C(=O)CCl)S(=O)(=O)c2cc(Cl)sc2Cl)cc1`, the IC50 in [3] turned out to be 127000 nM.
`O=C(CBr)N(c1ccccc1)S(=O)(=O)c1cc(Cl)sc1Cl`: the IC50 in data set [7] is above 20000 nM; in [8], above 20000 nM; in data set [9], above 20000 nM; in data set [3], 600 nM; in data set [10], above 20000 nM; in the data set with Plasmodium falciparum, 17000 nM.
On to `Oc1ccccc1-c1nc(NCc2cccnc2)c2ccccc2n1`, for which, at Cdc2-related kinase [2], the IC50 turned out to be 11000 nM.
Turning to `Cc1cc(C)cc(-c2ccc3nc(NC(=O)C4CCCCCC4)n(C)c3c2)c1`, at Cdc2-related kinase [2], inhibition was half-maximal at 5 nM (IC50).
With `CC(C)(C)n1nc(-c2ccc3ccccc3c2)c2c(N)ncnc21`, in [11], the IC50 stood at 177 nM.
As to `CCN(Cc1ccc(/C=C2\C(=O)Nc3ccccc32)o1)S(C)(=O)=O`, the IC50 on Cdc2-related kinase [2] was 510 nM.
Turning to `COc1ccccc1-c1cnn2c(Nc3cccc(Cl)c3)cc(C)nc12`, the selectivity ratio in data set [4] was 19. In data set [5], this molecule showed an IC90 of 1.7 µg/mL (≈ 4.66 µM).
`COc1ccccc1C(=O)c1cnc(NC2CCN(C(=O)Nc3ccccc3)CC2)nc1N`: in the data set with Trypanosoma brucei, the Activity is reported as 100%. Further, the IC50 in data set [12] came out at 70 nM; in the data set with Leishmania donovani [13], 1000 nM; with Leishmania donovani [14], 1000 nM; in [15] it was 70 nM.
Take `O=C(OCn1nnc2ccccc2c1=O)c1ccccc1`: the selectivity ratio in data set [4] is above 28. The same molecule showed an IC90 in [5] of 1.4 µg/mL (≈ 4.98 µM).
